SMILES strings stand for the structures. Non-standard residues stand in square brackets, D forms with d. Residues, ends and D or L forms follow the SMILES beside them. ξ: configuration not given here. *: point of attachment. ξQ = NC(=O)CCC(N)C(=O)O; Cbz = O=C(OCc1ccccc1)*

`CCOC(=O)c1cn(C)c2cc(F)c(F)cc2c1=O`: the melting point was in the range of 210 to 212 °C.
`Nc1cc([N+](=O)[O-])cc(CCO)c1N` showed a melting point of 172 °C.
The value for `CCC(=O)c1cccc2nc3n(c12)CCCN3c1ccc(Cl)cc1Cl` was 195 to 196 °C.
The value for `CC(SC(=O)c1ccccc1)C(=O)N(CC(=O)O)C1CC1` (stereo not given) was 140 to 143 °C.
The value for `COc1ccc(/C=C(\C#N)c2ccccc2C(F)(F)F)cc1OC1CCCC1` was 96 to 98 °C.
The compound `CC(=O)Nc1cnc2ccsc2c1` gave a melting point of 192 to 194 °C.
The value for `Cc1ccc(C(=O)NCC(C)O)cc1C` (stereo not given) was 77 to 78 °C; that for `COc1ccc(OCCCCCC(=O)O)c(C=O)c1` was 104 to 106 °C.
`Nc1ccc(C2CCC(=O)CC2)cc1`: the melting point fell in the range of 127 to 128 °C.
The value for `COc1ccc2c(c1)c(Cc1nc(-c3ccc([N+](=O)[O-])cc3)cs1)c(C)n2C(=O)c1ccc(Cl)cc1` was 219 °C.
The value for `COC(=O)[C@H]1NC(=O)[C@H]1NC(=O)Cc1cccs1` (relative stereo) was 133 to 136 °C.
The value for `CSc1nc2cc(Cl)ccc2n1C1CCN(CCCn2c(=O)[nH]c3ccccc32)CC1` was 196 °C; that for `CC(C)(C)c1ccc(COc2cc(C(O)C#Cc3ccc(C(=O)O)cc3)cc3c2C(C)(C)CCC3(C)C)cc1` (stereo not given) was 254 °C.
For the compound `CNC(=O)c1cc(C)nc(NC(=O)c2cc(Cl)nn2-c2ncccc2Cl)n1`, the melting point lay within 198 to 199 °C.
The value for `COc1ccc2c(=O)cc(-c3ccc(O)c(O)c3)oc2c1` was more than 240 °C.
`O=c1[nH]c2c([nH]c1=O)C1=C(CCC(n3cccc3)=C1)CC2` gave a melting point of more than 250 °C.
The value for `Cc1noc2ncnc(NCCC(C)C)c12` was 133 °C; that for `O=C(NCCO)c1csc(C(=O)NCCO)n1` was 155 to 158 °C.
The value for `Cc1nc2ccccc2n1CCCNCC(O)COc1ccc(CC(N)=O)cc1` (stereo not given) was 146 to 149 °C; that for `COC(CNC(=S)N1CCN(c2ccc(O)cc2)CC1)OC` was 161 °C.
The value for `CN(c1cccc2cc(C3=NCC(CCO)S3)[nH]c12)S(=O)(=O)c1ccccc1C(F)(F)F` (stereo not given) was 153 to 154 °C; that for `CC(C)(C)Sc1c(-c2ccc(S(C)(=O)=O)cc2)cnn(CC(F)(F)F)c1=O` was 186 to 189 °C; that for `Cc1ccc(CSc2nc3cc4c(cc3[nH]2)OC(C)O4)nc1` was 147 to 148 °C.
As for `COc1ccc(Cn2cnc3c(-c4ccco4)nc(Cl)nc32)cc1C`, the melting point fell in the range of 177 to 179 °C.
`CCOC(=O)Nc1nc(-c2ccccc2)c(-c2nc3ccccc3c(=O)n2-c2cccc(OC)c2)s1` gave a melting point of 204 to 205 °C.
`O=[N+]([O-])c1ccc(C2CCN(c3ccncc3)CC2)cc1` showed a melting point of 173 to 174 °C.
`COCCCCCCCCCCCC(N)=S` registered a melting point of 86.8 to 89.2 °C.
The value for `CCN1C(=O)C(C)(C)C(=O)N(C)c2cc(CN(CCc3ccc(C)nc3C)Cc3scnc3C)ccc21` was 136 to 137 °C; that for `Cc1nc(NC(=O)C2=C(O)c3ccc4ccccc4c3S(=O)(=O)N2)sc1C` was 253 °C; that for `C[Si](C)(C)CCCOc1ccc(C(=O)O)c(O)c1` was 187 °C.
The value for `CC(=O)OCCCc1c2ccccc2cc2ccccc12` was 107 to 109 °C; that for `COc1cc2c(=O)c(C#N)c[nH]c2cc1F` was 147 to 149 °C.
The value for `CCOC(=O)c1c(C(F)(F)F)nc(C(F)F)c(C=O)c1CC` was 63.5 to 65 °C; that for `Cc1cccc(Nc2nc(-c3cc(-c4ccccc4)no3)cs2)n1` was 291 to 293 °C; that for `O=C1CCCc2[nH]c3c(F)cccc3c21` was 222 to 224 °C.
`CCOC(=O)/C=C/c1cc(OC)c(OC)c(OC)c1C#N` yielded a melting point of 150 to 152 °C.
The value for `CC(=O)Nc1nc2c(s1)CCN(C(=O)OCc1ccccc1)CC2` was 126 to 128 °C.
The value for `COc1ccc(SCCNC(=O)c2ccc(OCC=C(C)CCC=C(C)C)cc2)nc1` was 82.6 to 83.4 °C; that for `CS(=O)(=O)N(CCCl)N(C(=O)NCCCCl)S(C)(=O)=O` was 85 to 86 °C.
`COC(=O)CNC(=O)CNC(=O)C(CCC(N)=O)NC(=O)OCc1ccccc1` (stereo not drawn) (Cbz-[ξQ]-Gly-Gly-OMe) had a melting point of 129 to 134 °C.
The value for `CCCc1sc(C#N)c2c1C(=O)CC(C)(C)C2` was 38 to 40 °C.
The value for `CC1(C)Oc2ccsc2C(N2CCCC2=O)C1OC(=O)c1ccccc1` (stereo not given) was 130 to 132 °C; that for `CCCCOCCOc1ccc(-c2ccc3c(c2)C=C(C(=O)Nc2ccc(S(=O)CCn4cnnc4)cc2)CCN3CC(C)C)cc1` (stereo not given) was 168 to 170 °C.
The value for `CC(C)c1ccc2nc3c(C(=O)NCCCCc4cccnc4)cccn3c(=O)c2c1` was 129 to 130 °C.
As to `CN(C)c1ccc(C2(C#N)CCCC2)cc1`, the melting point fell in the range of 73 to 74 °C.
The value for `CCC1=C(O)C(C(C)=O)C(=O)OC1=O` (stereo not given) was 212 °C.
The value for `CCOc1nn(Cc2ccc(OCc3nc(-c4ccccc4)oc3C)nc2)cc1CCC(=O)O` was 143 to 144 °C.
In turn, `CC(C)(C)C(=O)Oc1cc(C=CC(=O)c2ccccc2)cc([N+](=O)[O-])c1O` yielded a melting point of 148 to 150 °C.
The value for `COCCO[C@@H]1c2ccc3c(nc(C)n3C)c2O[C@H](c2ccccc2)[C@H]1OC(=O)COC` was 200 °C.
The value for `COc1cc2c(c(C)c1C)C(O)CC2c1c[nH]cn1` (stereo not given) was 184 to 189 °C; that for `CC1SCCCNC1=O` (stereo not given) was 192 to 193 °C; that for `COc1cc2c(cc1-c1c(C)nn(C)c1C)-c1c(-c3cccs3)c3c(n1CC2)C(=O)N(C(C)C)CCN(C(=O)CCC(F)(F)F)C3` was 256 to 258 °C.
`COC(=O)c1ccc(OC2CCCCO2)cc1` (stereo not given) gave a melting point of 58 to 62 °C.
The value for `CS(=O)(=O)c1ccc(-c2cnn(CCC(F)=C(F)F)c(=O)c2-c2ccc(F)cc2)cc1` was 131 to 132 °C.
The compound `Cc1nc(-n2cnn(CCOCc3ccc(F)cc3)c2=O)sc1C(=O)NCc1cccnc1` yielded a melting point of 235 to 236 °C.
The value for `C=CCOC(=O)C(C)(C)Cc1c(SC(C)(C)C)c2cc(O)ccc2n1Cc1ccc(Cl)cc1` was 150 to 151 °C; that for `CN(C)c1cc(N2C(=O)N3CCCC3(Cc3ccc(Br)cc3)C2=O)cc(Cl)n1` (stereo not given) was 194 °C; that for `CCS(=O)c1nsc(NC(=O)NC)c1C(N)=O` (stereo not given) was 245 °C.
The value for `Cc1cc(-c2nnc3c4ccccc4c(OCc4ccncn4)nn23)no1` was 222 to 224 °C; that for `Oc1ccc(Nc2cc(-c3ccccc3)[nH]n2)cc1` was 215 to 217 °C; that for `O=C1NCC(Cc2ccccc2Br)O1` (stereo not given) was 130 to 131 °C.
The value for `CC(C)(C)NC(=O)NC1(C#N)CCCC1` was 206 to 207 °C.
For the compound `C=C1CCC2C3CC=C4C=C(OC)CCC4(C)C3CCC12C` (stereo not given), the melting point was 97 to 99 °C.
The value for `CNC(=O)c1cccc(CNc2ccccc2C(=O)Nc2cccc(C(F)(F)F)c2)c1` was 166 to 167 °C; that for `Cc1nn(C)cc1C(=O)NC(C#N)c1ccsc1` (stereo not given) was 113 to 114 °C; that for `Cc1nc(N2CCN(Cc3c(C)noc3-c3ccccc3)C2=O)sc1C(=O)NCc1cccnc1` was 109 to 111 °C.
The value for `O=C(O)C1CSC(c2ccccc2O)N1` (stereo not given) was 169 °C; that for `OC12N=C(CSCc3ccccc3)SC1Cc1cc(Cl)ccc12` (stereo not given) was 102 to 104 °C.
The value for `CCCOc1ccc(N2CCCn3c2nc2c(Cl)ccc(C(OC(F)F)C(F)(F)F)c23)c(C)n1` (stereo not given) was 156 to 158 °C.
`O=C(NCCOc1ccc(CC(Oc2cc(F)cc(F)c2)C(=O)O)cc1)c1ccc(-c2ccccn2)cc1` (stereo not given) gave a melting point of 150 to 151 °C.
The value for `O=C(O)c1cc([N+](=O)[O-])cc2c1Nc1ccc(CCc3ccc(Cl)c(Cl)c3)cc1O2` was more than 250 °C; that for `c1coc(Cn2c(NC3CCNCC3)nc3cccnc32)c1` was 159 °C.
The value for `COC(=O)Nc1ccc(C(=O)N(C)C)c(S(=O)(=O)NC(C)(C)C)c1` was 184 to 188 °C; that for `O=C(O)Cc1ccc(Sc2ccc(Cl)cc2)cc1` was 135 to 140 °C.
The value for `Cc1cc(C(F)(F)F)cc(Oc2ccc(CCNc3ncnc4scnc34)cc2)n1` was 111 to 112 °C; that for `CC(=O)Oc1c(C)c(C)c2c(c1C)CCC(C)(C=O)O2` (stereo not given) was 88 to 90 °C.
As to `CC(=O)NCc1ccc(CN2CCN(c3ccc(NC(C)=O)cc3)CC2)cc1`, the melting point lay within 225 to 226 °C.
The value for `O=C(O)CCc1ccccc1OCCC(c1ccccc1)(c1ccccc1)c1ccccc1` was 118 to 120 °C; that for `CC(C)Oc1ccc(OCc2ccccc2)cc1-c1nc2ccc(C#N)nc2[nH]1` was 214 to 215 °C; that for `CCCCCCCCCCCCn1nnc(CN(Cc2ccccc2)C(=O)Nc2c(OC)cc(OC)cc2OC)n1` was 57 to 59 °C.
The value for `CC1(C)CC2(CCNCC2)C(=O)O1` was more than 280 °C; that for `Cc1c(-c2ccc([N+](=O)[O-])cc2)sc2[nH]c(=O)n(-c3ccccc3)c(=O)c12` was more than 300 °C.
The value for `C#CCC#CCC#CCOc1ccc(C)cc1` was 34.5 to 35.5 °C; that for `CC(C)n1nc(Br)c([N+](=O)[O-])c1Br` was 72 to 73 °C; that for `CCOC(=O)c1cccc(NC(=O)NC2C(=O)N(CC34CC5CC(CC(C5)C3)C4)c3ccccc3N(c3ccccc3)C2=O)c1` (stereo not given) was 220 to 221 °C.
`O=[N+]([O-])c1cccnc1NCc1ccc(Cl)cc1` displayed a melting point of 95 to 96 °C.
The value for `CNC(=O)c1cccc(-c2ccc3nnn(Cc4ccc5ncccc5c4)c3n2)c1` was 215 to 217 °C; that for `CCCCOC(=O)c1ccc(OC(=O)c2ccc(C(=O)Oc3ccc(C(=O)OCCCC)cc3)cc2)cc1` was 128 to 131 °C; that for `Cn1cc(C=C2SC(=S)N(CC(=O)O)C2=O)c2ccccc21` was 282 to 288 °C.
The value for `FC(F)(F)c1n[nH]c2ccc(Br)cc12` was 168 to 169 °C.
